SMILES strings stand for the structures. Where two headings read alike, the source gives them in different places. Some results are limits rather than exact numbers.

The source of these data is patent US6093723A, “4-substituted beta-carbolines and analogs thereof” (Boehringer Ingelheim Pharmaceuticals, Inc., priority 1997, dated 2000).

Holding throughout (type): cell-based
The test system of experiment [1] is Ca^+2 influx in Jurkat cells (clone E6-1). The experiment in a line: Calcium influx assay (thapsigargin-stimulated, Fluo-3). To be noted: Homo sapiens; Jurkat cells clone E6-1, thapsigargin 100 nM, 10 min preincubation. The protocol:
Jurkat cells (clone E6-1) are pelleted by centrifugation, washed twice, and resuspended in RPMI 1640 containing, […], 1 % fetal calf serum, 3 μM Fluo-3-AM, 13.5 μl/ml Pluronic F 127 (Molecular Probes) and incubated for 1 hour at 37° C. The loaded cells are washed twice in Hanks Balanced Salt Solution containing 10 mM HEPES. The cells are resuspended in HBSS containing 10 mM HEPES, and dispensed into 96-well Dynatech black microtiter plates at 2×10^5 cells/well. The cells are preincubated with compounds for 10 minutes at room temperature. Baseline fluorescence of unstimulated cells is measured using an SLT fluorescent microtiter plate reader with an excitation wavelength of 495 nm and emission wavelength of 538 nm. Thapsigargin is then added to a final concentration of 100 nM. Following a 5 minute incubation, fluorescence of thapsigargin treated cells is measured. Delta fluorescence values are determined by subtracting baseline fluorescence values from thapsigargin induced fluorescence values.

The subject of experiment [2] is IL-2 production in T lymphocytes (CD3+/CD4+ cells). The experiment in a line: IL-2 production assay, Protocol B (antiCD3/antiCD28 as stimuli). To be noted: T-lymphocyte; human T lymphocytes, anti-CD3/anti-CD28 and goat anti-mouse coated beads, 16 hour. As for the experimental part:
Protocol B (antiCD3/antiCD28 as stimuli)
Human peripheral blood is obtained from healthy donors by venipuncture and the mononuclear cell fraction is prepared by centrifugation on Ficoll Hypaque (Phamacia) density gradients. Contaminating red blood cells are lysed and the CD3+/CD4+ cells are purified using immunoaffinity columns (R&D Systems or CellPro). The T lymphocytes are plated at 1-1.5×10^5 cells/well in a 96 well microtiter plate, and incubated with serial dilutions of compounds for 20 minutes at 37° C. The T cells are activated by the addition of 0.6 ng/ml anti-CD3 (Immunotech), 500 ng/ml anti-CD28 (Biodesign) and 2×10^5 goat anti-mouse coated beads (Dynal). The final volume of the assay is 200 μl. Following a 16 hour incubation at 37° C., the cells are pelleted, and the supernatants are removed and collected and stored at -70° C. until assayed for interleukin-2 using a commercial ELISA kit (R&D Systems).

The test system of experiment [3] is IL-2 production in CD3+/CD4+ cells. The experiment in a line: IL-2 production assay, Protocol A (ionomycin and PMA as stimuli). To be noted: human CD3+/CD4+ cells, ionomycin 1 μg/ml and PMA 10 ng/ml, 16 hr. As for the experimental part:
Protocol A (ionomycin and […] as stimuli)
Human peripheral blood is obtained from healthy donors by venipuncture and the mononuclear cell fraction is prepared by centrifugation on Ficoll Hypaque (Phamacia) density gradients. Contaminating red blood cells are lysed and the CD3+/CD4+ cells are purified using immunoaffinity columns (R&D Systems or CellPro). The cells are resuspended and dispensed in 96 well microtiter plates. Test compounds are added to the cells approximately 15 minutes prior to stimulation with ionomycin (1 μg/ml) and PMA (10 ng/ml). The final volume of the assay is 100 μL. Following a 16 hr incubation at 37° C., the cells are pelleted by centrifugation, and the supernatants are collected and stored at -70° C. until assayed for IL-2 using a commercial ELISA kit (Genzyme).

The next experiment has as its system IL-2 promoter. The experiment in a line: IL-2 promoter assay (luciferase reporter in Jurkat cells). To be noted: Homo sapiens. The text has this: All the known regulatory features of IL-2 gene are contained within a ~300 bp sequence immediately upstream of the open reading frame. […] The resulting construct, pIL2P-luc, and a vector containing a neomycin resistance gene, pcDNA/Neo (Invitrogen), are linearized and stably transfected into Jurkat cells (a human T cell line) by electroporation.
For screening compounds, the cells are pelleted by centrifugation, washed once with PBS, resuspended in RPMI (phenol red-free) containing 5% FBS, and dispensed into 96-well, white microtiter plates (Packard) at 50,000 cells/well. The cells are pre-incubated with compounds (1 μg/ml) for 15 min prior to addition of ionomycin (1 μg/ml) and PMA (10 ng/ml) in a final volume of 100 μl. Following a 5 hr incubation at 37° C. in a humidified incubator, 100 μl of Luc-Lite lysis buffer/luciferase assay buffer (Promega) is added and luminescence measured using a Packard TopCount scintillation counter/luminometer.
In general terms: A reporter such as luciferase makes a cellular process visible.

What is called IC50 is the concentration that inhibits the measured activity by half. Consider `COc1ccc2c(c1)[nH]c1cncc(-c3ccc(C)cc3)c12` [Compound 22], for which the values for the IC50 in experiment [1] and in experiment [2] were 1700 nM and 5.8 µM, respectively.
On to `Cn1c2ccccc2c2c(-c3ccc(C(F)(F)F)cc3)cncc21` [Compound 26], for which the IC50 in experiment [1] was 2500 nM; in experiment [2], over 25 µM.
With `O=C(c1ccccc1)c1ccc(-c2cncc3[nH]c4ccccc4c23)cc1` [Compound 25], the IC50 in experiment [1] was 7700 nM.
`COc1ccc(-c2cncc3c2c2ccccc2n3Cc2ccccc2)cc1` [Compound 10]: the IC50 is 4600 nM in experiment [1], 27 µM in experiment [3] and over 25 µM in experiment [2].
The like results for `c1cncc(-c2cncc3[nH]c4ccccc4c23)c1` [Compound 14] were, in that order, 29000 nM, 36 µM and 22 µM.
For the compound `CN(C)c1ccc(-c2cncc3[nH]c4ccccc4c23)cc1` [Compound 24], the half-inhibitory concentration (IC50) is 1600 nM in experiment [1] and 0.17 µM in experiment [2].
In the same order, the values of `c1ccc(Cc2cncc3[nH]c4ccccc4c23)cc1` [Compound 37] are 2200 nM and over 25 µM.
The like results for `Cc1ccc(-c2cncc3[nH]c4ccc(C)cc4c23)cc1` [Compound 16] were, in that order, 4500 nM and over 25 µM.
Consider `CCCc1cncc2[nH]c3ccccc3c12` [Compound 3, 4-Propyl-β-carboline], for which the IC50 was determined as 17200 nM in experiment [1], 38 µM in experiment [3] and 21 µM in experiment [2].
On to `Cc1ccc(-c2cncc3[nH]c4c(C)cccc4c23)cc1` [Compound 18], for which the results for the IC50 in experiment [1] and in experiment [2] were 700 nM and 5.4 µM, respectively.
Consider `COc1ccc(-c2cncc3[nH]c4ccc(Cl)cc4c23)cc1` [Compound 6], for which the IC50 is 14000 nM in experiment [1]; 9.2 µM in experiment [3]; over 25 µM in experiment [2]; 3200 nM in the experiment on IL-2 promoter (Jurkat luciferase reporter cells, ionomycin 1 μg/ml and PMA 10 ng/ml, 5 hr, read-out: IL-2 PROMOTER IC50).
Consider `COc1ccc(-c2cncc3[nH]c4ccccc4c23)c(OC)c1` [Compound 27], for which the IC50 in experiment [1] was determined as 1300 nM; in experiment [2] it was 5.6 µM.
For the compound `COC(=O)c1ccc2c(c1)[nH]c1cncc(-c3ccc(C)cc3)c12` [Compound 35], in experiment [1], the IC50 was 700 nM.
As to `COc1cc(OC)cc(-c2cncc3[nH]c4ccccc4c23)c1` [Compound 28], the IC50 in experiment [1] was 700 nM; in experiment [2], 4.8 µM.
The like results for `Cc1noc(-c2cncc3[nH]c4ccccc4c23)n1` [Compound 43] were, in that order, over 45000 nM and over 25 µM.
In the same order, the values of `Cc1ccc(-c2cncc3[nH]c4cccc(C)c4c23)cc1` [Compound 15] are 900 nM and 9 µM.
`COc1ccccc1-c1cncc2[nH]c3ccccc3c12` [Compound 11]: the values for the IC50 in experiment [1], in experiment [3] and in experiment [2] were 6400 nM, 3 µM and 20 µM, respectively.
In the case of `COc1ccc(-c2cncc3[nH]c4ccccc4c23)cc1OC` [Compound 29], the IC50 came to 2700 nM in experiment [1] and 1.6 µM in experiment [2].
The like results for `c1ccc2cc(-c3cncc4[nH]c5ccccc5c34)ccc2c1` [Compound 42] were, in that order, 1300 nM and 2.5 µM.
In the same order, the values of `c1ccc2c(c1)[nH]c1cncc(C3CCCCC3)c12` [Compound 38] are 2200 nM and over 25 µM.
For `Cc1ccnc(-c2cncc3[nH]c4ccccc4c23)c1` [Compound 40], the IC50 in experiment [1] is 14400 nM; in experiment [2], over 25 µM.
Turning to `COc1cc(-c2cncc3[nH]c4ccccc4c23)cc(OC)c1OC` [Compound 31], the values for the IC50 in experiment [1] and in experiment [2] were 3300 nM and 2.8 µM, respectively.
As for `COc1ccc(-c2cncc3c2c2ccccc2n3C)cc1` [Compound 8], the IC50 in experiment [1] is 2200 nM; in experiment [3] it was over 20 µM; in experiment [2], 7.4 µM.
On to `Cc1ccc(-c2cncc3[nH]c4ccccc4c23)s1` [Compound 39], for which the IC50 in experiment [1] is 700 nM; in experiment [2] it was 9.5 µM.
Take `Cc1ccc(-c2cncc3[nH]c4cc(CO)ccc4c23)cc1` [Compound 34]: the IC50 worked out at 2400 nM in experiment [1] and 7.7 µM in experiment [2].
In the case of `Clc1ccc(-c2cncc3[nH]c4ccccc4c23)cc1` [Compound 13], the figures for the IC50 in experiment [1], in experiment [3] and in experiment [2] were 500 nM, 0.8 µM and 8.1 µM, respectively.
In the case of `COC(=O)c1cccc2c1[nH]c1cncc(-c3ccc(C)cc3)c12` [Compound 36], the figures for the half-inhibitory concentration (IC50) in experiment [1] and in experiment [2] were 3300 nM and 17 µM, respectively.
Consider `Clc1ccc(-c2cncc3[nH]c4ccccc4c23)cc1Cl` [Compound 32], for which the IC50 in experiment [1] is 1500 nM; in experiment [2], 8.9 µM.
The like results for `CCOC(=O)c1ccc(-c2cncc3[nH]c4ccccc4c23)cc1` [Compound 19] were, in that order, 3400 nM and 6.3 µM.
Regarding `CC(C)c1ccc(-c2cncc3[nH]c4ccccc4c23)cc1` [Compound 20], the figures for the IC50 in experiment [1] and in experiment [2] were 300 nM and 1.1 µM, respectively.
In the same order, the values of `COc1ccc(-c2cncc3[nH]c4ccccc4c23)cc1C` [Compound 33] are 1000 nM and 5.3 µM.
As to `Cc1cccc(-c2cncc3[nH]c4ccccc4c23)c1` [Compound 9], the IC50 is 1100 nM in experiment [1], 5 µM in experiment [3] and over 25 µM in experiment [2].
In the case of `Cc1ccc(-c2cncc3[nH]c4cc(C)ccc4c23)cc1` [Compound 17], the IC50 in experiment [1] was found to be 400 nM; in experiment [2], 4.2 µM.
On to `OCc1ccc(-c2cncc3[nH]c4ccccc4c23)cc1` [Compound 23], for which, in experiment [1], the IC50 worked out at 15200 nM.
Take `C=CC[C@@H]1/C=C(\C)C[C@H](C)C[C@H](OC)[C@H]2O[C@@](O)(C(=O)C(=O)N3CCCC[C@H]3C(=O)O[C@H](/C(C)=C/[C@@H]3CC[C@@H](O)[C@H](OC)C3)[C@H](C)[C@@H](O)CC1=O)[C@H](C)C[C@@H]2OC` [FK506, reference compound]: the 50% inhibitory concentration (IC50) in the experiment on IL-2 promoter (Jurkat, read-out: inhibition of luciferase activity, IC50) turned out to be 0.3 nM.
Consider `CC(C)c1noc(-c2cncc3[nH]c4ccccc4c23)n1` [Compound 44], for which the IC50 in experiment [1] was 1300 nM; in experiment [2] it was under 10 µM.
In the case of `Cc1ccc(-c2cncc3[nH]c4ccccc4c23)c(C)c1` [Compound 30], the IC50 in experiment [1] came to 1700 nM; in experiment [2] it was 5.9 µM.
The like results for `Cc1cnc(-c2cncc3[nH]c4ccccc4c23)s1` [Compound 41] were, in that order, 17700 nM and over 25 µM.
On to `c1ccc(-c2cncc3[nH]c4ccccc4c23)cc1` [Compound 2, 4-Phenyl-β-carboline], for which the 50% inhibitory concentration (IC50) is 2200 nM in experiment [1] and 14 µM in experiment [3].
Consider `Oc1ccc(-c2cncc3[nH]c4ccccc4c23)cc1` [Compound 21], for which the concentration for half-maximal inhibition (IC50) in experiment [1] amounted to 2900 nM.
